Source: patent US20190315966A1, “COMPOUNDS FOR THE DETECTION OF SENESCENT CELLS” (THE UNIVERSITY OF MANCHESTER, priority 2016, published 2019)

How the values were obtained:
[1] = Ethanol solubility of the stain in the histochemical method; type: physicochemical; conditions: stain diluted in ethanol / 70% ethanol (v/v) and filtered
[2] = system: lipofuscin rich cells in human seminal vesicle and human liver with steatohepatitis; assay: Control staining of reference tissues with high lipofuscin content (seminal vesicle, liver with steatohepatitis); conditions: human seminal vesicle and liver with steatohepatitis sections
Description: (§1) Tissue sections were obtained from paraffin embedded, formalin fixed: (a) human seminal vesicle and (b) human liver with steatohepatitis that have high content of lipofusin making them ideal reference (control) tissues to test the SBB assay. Subsequently, they were immobilized on glass microscopy slides by standard procedures and processed as follows: • a. Deparaffinization for 5 min at room temperature in xylene. • b. Gradual rehydration in solutions of descending concentration of ethanol (100%, 80%, 70%, 50% v/v) and finally in TBS (Tris-buffered saline) or PBS (Phosphate-buffered saline) solution. • c. The SSB dye was diluted in 70% ethanol (v/v), filtered and then applied on tissue sections for 10 min. • d. Quick wash in 50% (v/v) ethanol. • e. Transfer and wash in TBS or PBS solution. • f. Counterstain with Hematoxylin or Nuclear Fast Red, followed by mounting with glycerol and sealed with a cover slip. • g. Microscopy observation.
Tissue sections were obtained from paraffin embedded, formalin fixed: (a) human seminal vesicle and (b) human liver with steatohepatitis that have high content of lipofusin making them ideal reference (control) tissues to test the performance of the LG9 compound. Subsequently, they were immobilized on glass microscopy slides by standard procedures and processed as follows: • a. Deparaffinization for 5 min at room temperature in xylene. • b. […]

[3] = system: senescent cells in mouse lung adenomas; assay: Histochemical staining of paraffin embedded, formalin fixed tissue sections, mouse lung adenomas; conditions: mouse lung adenoma sections; stain in 70% ethanol, 10 min; microscopy
Description: as §1, with “(a) irradiated” for “(a)”, “laryngeal tumors” for “seminal vesicle”, “mouse lung adenomas,” for “human liver”, “established presence” for “steatohepatitis that have high content”, “senescent cells [as described in Georgakopoulou et al, Aging (Albany N.Y.) 2013].” for “lipofusin making them ideal reference (control) tissues to test the SBB assay.”
(§2) Tissue sections were obtained from paraffin embedded, formalin fixed: (a) irradiated human laryngeal tumors and (b) mouse lung adenomas. Subsequently, they were immobilized on glass microscopy slides by standard procedures and processed as follows: • a. Deparaffinization for 5 min at room temperature in xylene. • b. […]

[4] = system: senescent cells in human thymus; assay: Histochemical staining of human thymus tissue sections (cortex and medulla); conditions: cortex and medulla of the human thymus
Description: as §1, with “fixed,” for “fixed: (a)”, “thymus” for “seminal vesicle”, “specifically from the cortex and medulla” for “(b) human liver with steatohepatitis that have high content”, “this organ.” for “lipofusin making them ideal reference (control) tissues to test the SBB assay.”, “LG9 SBB-analogue” for “SSB dye”

[5] = system: senescent cells in irradiated human laryngeal tumors; assay: Histochemical staining of paraffin embedded, formalin fixed tissue sections, irradiated human laryngeal tumors; conditions: irradiated human laryngeal tumor sections; stain in 70% ethanol, 10 min; microscopy
Description: as §1, with “(a) irradiated” for “(a)”, “laryngeal tumors” for “seminal vesicle”, “mouse lung adenomas,” for “human liver”, “established presence” for “steatohepatitis that have high content”, “senescent cells [as described in Georgakopoulou et al, Aging (Albany N.Y.) 2013].” for “lipofusin making them ideal reference (control) tissues to test the SBB assay.”
as §2

[6] = system: senescent cells in liver biopsies; assay: Histochemical staining of liver tissue sections with high content of lipofuscin
Description: as §1, with “fixed” for “fixed: (a) human seminal vesicle and (b) human”, “biopsies” for “with steatohepatitis”, “lipofusin.” for “lipofusin making them ideal reference (control) tissues to test the SBB assay.”, “LG46 or LG48 analogue” for “SSB dye”

Saos2-p53 Tet-On cells = assay: Histochemical staining of cell spreads on cover slips; type: cell-based; conditions: Saos2-p53 Tet-On cells after p53 induction; stain in ethanol, 10 min
Description: (§3) Saos2-p53 Tet-On cells were grown on cover slips and collected after p53 induction to induce senescence. Cover slips were treated as follows: • a. Fixation in ice-cold ethanol or methanol for 4 min. • b. Application of SSB Dye, diluted in ethanol and filtered, on cells for 10 min. • c. Quick wash in 50% (v/v) ethanol. • d. Transfer and wash in TBS or PBS solution. • e. Counterstain with Nuclear Fast Red, followed by mounting with glycerol and sealing with a cover slip. • f. Microscopy observation.
as §3, with “collected […]” for “collected”, “the LG9 SBB-analogue,” for “SSB Dye,”

[7] = per Georgakopoulou et al, Aging 2013; cited from earlier work

Compound	ethanol solubility in the staining method [1]	staining of lipofuscin rich cells [2]	staining of senescent cells [3]	staining of senescent cells [5]	staining of cells [6]	also measured
CC1(CCCO)Nc2cccc3c(/N=N/c4ccc(/N=N/c5ccccc5)c5ccccc45)ccc(c23)N1 (stereo not drawn) [Example 5, 3-(2-Methyl-6-((E)-(4-((E)-phenyldiazenyl)naphthalen-1-yl)diazenyl)-2,3-dihydro-1H-perimidin-2-yl)propan-1-ol]						melting point: 124 to 126 °C
CC1(CO)Nc2cccc3c(/N=N/c4ccc(/N=N/c5ccccc5)c5ccccc45)ccc(c23)N1 (stereo not drawn) [LG9, (2-methyl-6-((E)-(4-((E)-phenyldiazenyl)naphthalen-1-yl)diazenyl)-2,3-dihydro-1H-perimidin-2-yl)methanol]	does not encounter the ethanol solubility problems	stained cells	stained senescent cells	stained senescent cells		staining of senescent cells [4]: stained senescent cells
CC1(C)Nc2cccc3c(/N=N/c4ccc(/N=N/c5cccc(O)c5)c5ccccc45)ccc(c23)N1 [LG46, 3-((E)-(4-((E)-(2,2-dimethyl-2,3-dihydro-1H-perimidin-6-yl)diazenyl)naphthalen-1-yl)diazenyl)phenol]	does not encounter the ethanol solubility problems				stained cells	
CC1(C)Nc2cccc3c(/N=N/c4ccc(/N=N/c5ccc(CCO)cc5)c5ccccc45)ccc(c23)N1 [LG48, 2-(4-((E)-(4-((E)-(2,2-dimethyl-2,3-dihydro-1H-perimidin-6-yl)diazenyl)naphthalen-1-yl)diazenyl)phenyl)ethanol]	does not encounter the ethanol solubility problems				stained cells	
CC1(C)Nc2cccc3c(/N=N/c4ccc(/N=N/c5ccccc5)c5ccccc45)ccc(c23)N1 [SBB, Sudan Black B, reference compound]		stained cells	clearly stained	clearly stained		staining of senescent cells (Saos2-p53 Tet-On cells): clearly stained; ethanol solubility of the SBB stain [7]: ethanol solubility problems
